# Assay results as given in ChEMBL document CHEMBL3588776, “Inhibitors of the human neuraminidase enzymes” (Medchemcomm, 2014).
# Target: T1, Sialidase-3 (Homo sapiens, UniProt Q9UQ49)
# T1 sequence (Q9UQ49 whole entry): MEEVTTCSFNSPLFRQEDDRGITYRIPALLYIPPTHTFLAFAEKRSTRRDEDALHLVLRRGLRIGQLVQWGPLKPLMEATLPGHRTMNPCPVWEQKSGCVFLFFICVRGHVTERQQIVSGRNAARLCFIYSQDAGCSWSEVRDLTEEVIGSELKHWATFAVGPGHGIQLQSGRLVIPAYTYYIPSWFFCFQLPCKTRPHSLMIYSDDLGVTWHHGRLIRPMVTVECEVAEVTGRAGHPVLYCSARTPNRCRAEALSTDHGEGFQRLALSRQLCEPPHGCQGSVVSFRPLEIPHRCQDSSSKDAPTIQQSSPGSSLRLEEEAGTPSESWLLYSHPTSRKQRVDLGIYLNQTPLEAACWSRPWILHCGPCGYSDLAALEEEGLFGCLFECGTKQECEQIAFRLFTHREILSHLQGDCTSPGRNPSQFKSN
# Experiment: Inhibition of human recombinant NEU3 expressed in Escherichia coli pre-incubated for 10 mins before addition of followed by the addition of MUNANA substrate
smiles,measurement,value
C#CCCC(=O)N[C@@H]1[C@@H](O)[C@@H](F)[C@](F)(C(=O)O)O[C@H]1[C@H](O)[C@H](O)CO,IC50,5 µM
